# Patent US6365616B1, “Methimazole derivatives and tautomeric cyclic thiones to treat autoimmune diseases” (Sentron Medical, Inc., priority 1998, dated 2002)
# Read-outs that look alike come from different tables or passages of the source.
# Tests used:
# Assay type in all cases: cell-based, rat
# [1] = test system: protein/DNA complex with Fragment 127 of the MHC class I 5′-flanking region; assay: Gel shift (EMSA) with downstream 127 class I probe, extracts from treated FRTL-5 cells; settings: 5H cells treated 48 hours
# Protocol: Cells were grown in 6H medium with 5 % calf serum for 6-7 days to 70-80% confluence, then shifted to 5H medium with 5 % calf serum for 5 days. TSH (1×10^−10 M), gamma-interferon (100 U/ml), MMI (5 mM), and different concentrations of MMI derivatives or tautomeric cyclic thiones (0.0001 to 10 mM) were added as appropriate for […]. Cells were then harvested and extracts were made by a modification of a method of Dignam, J., et al. Methods in Enzymology, 101:582-598 (1983). In brief, cells were harvested by scraping after being washed twice with cold phosphate-buffer saline (PBS). Subsequently they were pelleted, washed in cold PBS and then pelleted again. The pellet was resuspended in Dignam buffer C (20 mM Hepes buffer at pH 7.9, 1.5 mM MgCl2, 0.42 M NaCl, 25% glycerol, 0.5 mM dithiotreitol (DTT), 0.5 mM phenylmethylsulfonylfluoride (PMSF), 1 […] pepstatin). The final NaCl concentration was adjusted on the basis of cell pellet volume to 0.42 M and cells were lysed by repeated cycles of freezing and thawing. Extracts were then centrifuged at 10,000×g at 4° C. for 20 min. The supernatant was recovered, aliquoted and stored at −70° C.
# Binding reactions were performed in a volume of 20 μl for 30 min at room temperature. The typical reaction mixture contained 1.5 fmol of ^32P DNA, 3 μg of cell extracts, 1 to 3 μg of poly (dI-dC) in 10 mM Tris-Cl (pH 7.9), 1 mM MgCl2, 1 mM DTT, 1 mM ethylenediamine tetra acetic acid (EDTA), and 5 % glycerol. After incubation, reaction mixtures were subjected to electrophoresis in 4% polyacrylamide gels for 90-120 min at 160 V in 0.5× TBE (Sambrook, J., et al., Molecular Cloning: A Laboratory Manual, 2nd ed. Cold Spring Harbor Press, NY, 2: 11.23-11.44 (1989)), then dried and autoradiographed. Probes were labeled with [α32P] deoxy CTP by Klenow enzyme (In Vitro labeling kit, Amersham) following the manufacturer's instructions, or by [γ^32P] ATP using T4 polynucleotide kinase. Labeled probes were then purified either through G-50 columns (5 prime→3 Prime) or on an 8% polyacrylamide gel.
# FIG. 3 denotes the sequence of the downstream region of the PD1 promoter. The location of enhancer A (−180 to −170 bp), the interferon response element (IRE; −161 to −150 bp), and the cAMP response element (CRE; −107 to −100 bp) are noted. The downstream silencer is between −127 and −80 bp (Saji, et al., ibid, 20096-20107 (1997)). Using a 127 bp probe, −125 to +1 bp, MMI (lane 4) or TSH (lane 10) induce the formation of a rapidly migrating protein/DNA complex (FIG. 4) which is clearly evident 24 to 48 h after SH cells are treated. MMI derivatives can also increase this complex, as illustrated for compound 8 in FIG. 4 (lanes 1 to 3). The time most suitable for measurement is 24 to 48 h (FIG. 4) the complex can be quantitated by comparison to control (lane 7 or 9) using densitometry or the phosphoimager as noted earlier. In this case, the increase over control (set at 1) is measured in arbitrary units relative to the maximal increase induced by 5 mM MMI which is arbitrarily set at 10. The results using all 11 compounds in Table 1, each added to cells at different concentrations 48 hours before extracts were prepared, are summarized in Table 3.
# [2] = test system: MHC class I RNA; assay: Northern analysis of MHC class I RNA levels in FRTL-5 cells; settings: 40 hours; for inhibition at 100 µM / inhibition at 1000 µM / inhibition at 5000 µM: Rattus norvegicus, FRTL-5
# [3] = test system: MHC class I antigen expression; assay: Flow cytometry of IFN-increased class I antigen expression in FRTL-5 cells; settings: 100 U/ml γ-interferon, 6H medium (TSH), 40 hours
# Protocol: (§1) In this experiment 10^6 cells were incubated with MHC class II or MHC class I-specific antibodies as described (Montani, V., et al., ibid (1998b); Saji, M., et al., ibid (1992a); Balducci-Silano, P. L., et al., Endocrinology 139:2309-2313 (1998)). After 30 min on ice, cells were washed with phosphate buffered saline at pH 7.4 and incubated for 30 min with fluorescein-isothiocyanate (FITC)-conjugated antibodies then analyzed by flow cytometry on a FACScan Cytometer using CellQuest software (Becton Dickinson).
# (§2) The concentration needed to achieve suppression of the interferon induced class I or class II surface expression was determined by testing different concentrations of the compounds (Table 18). Like all other assays, the order of effectiveness was compound 10>11>7 or 8>2>MMI>3.
# [4] = test system: MHC class II antigen expression; assay: Flow cytometry of IFN-increased class II antigen expression in FRTL-5 cells; settings: 100 U/ml γ-interferon, 6H medium (TSH), 40 hours
# Protocol: […] 13 and 14. Cells were stained with a fluorescein isothiocyanate conjugated class II-specific monoclonal antibody to RT1.B (clone OX-6, Sera Labs, UK) for 60 min at 4° C., washed twice with Dulbecco's phosphate buffered saline, and subjected to laser flow cytometry.
# as §1, §2
# [5] = test system: Y box protein (TSEP-1) RNA; assay: Northern analysis of Y box protein (TSEP-1) RNA levels in FRTL-5 cells; settings: 40 hours
# Excerpt: Whereas γ-IFN decreases Y box protein RNA levels in FRTL-5 cells, MMI can reverse this action (FIG. 16). […] The rat TSEP-1 probe was the clone 31 insert, residues 5 to 1395 of the rat TSEP-1 nucleotide sequence reported (Ohmori, M., et al., ibid (1996)); rat β-actin was kindly provided by Dr. B. Paterson (NCI, Bethesda, Md.). Radiolabeling of all probes, hybridization (0.5-1.0×10^6cpm/ml), and washing were as described (Isozaki, O., et al., ibid (1989); Saji, M., et al., ibid (1992); Ohmori, M., et al., ibid (1996)).
# The ability of the compounds to reverse the γ-IFN-induced decrease in TSEP-1 RNA levels is once again 10>11>7 or 8>2>MMI>3. This mimics data in all other assays.
# [6] = 100 μM, 100 U/ml γ-interferon, 6H medium (TSH), read-out: % inhibition of class I RNA expression (γ-interferon-treated)
# [7] = 100 μM, basal, 5H medium, read-out: % inhibition of class I RNA expression (basal)
# [8] = 1 mM, 100 U/ml γ-interferon, 6H medium (TSH), read-out: % inhibition of class I RNA expression (γ-interferon-treated)
# [9] = 1 mM, basal, 5H medium, read-out: % inhibition of class I RNA expression (basal)
# [10] = 100 μM, 100 U/ml γ-interferon, 6H medium (TSH)
# [11] = 5 mM, 100 U/ml γ-interferon, 6H medium (TSH), read-out: % inhibition of class I RNA expression (γ-interferon-treated)
SMILES,% increase over control relative to the maximal (5 mM) MMI-increased silencer complex which is set at 10 ([1]; 10 μM) [%],% increase over control relative to the maximal (5 mM) MMI-increased silencer complex which is set at 10 ([1]; 100 μM) [%],% increase over control relative to the maximal (5 mM) MMI-increased silencer complex which is set at 10 ([1]; 1 mM) [%],"inhibition at 100 µM [2, 6] [%]","inhibition at 100 µM [2, 7] [%]","inhibition at 1000 µM [2, 8] [%]","inhibition at 1000 µM [2, 9] [%]","Concentration to inhibit IFN-increased antigen expression, Class I [3] [µM]","Concentration to inhibit IFN-increased antigen expression, Class II [4] [µM]","Y box protein (TSEP-1) RNA level, compound +γIFN ([5]; 100 μM compound + γIFN) [%]","Y box protein (TSEP-1) RNA level, compound ALONE ([5]; 100 μM compound alone) [%]","Y box protein (TSEP-1) RNA level, compound +γIFN ([5]; 1 mM compound + γIFN) [%]","Y box protein (TSEP-1) RNA level, compound ALONE ([5]; 1 mM compound alone) [%]","% inhibition of class I RNA expression (γ-interferon-treated) [2, 10]","% inhibition of class I RNA expression (basal) ([2]; 100 μM, basal, 5H medium)","inhibition at 5000 µM [2, 11] [%]",further results
"Cn1c(-c2ccccc2)cnc1S [Compound 10, 5-Phenylmethimazole]",3 ± 1.5,7 ± 1,10 ± 1,42 ± 14,60 ± 8,60 ± 12,85 ± 16,40 ± 10,54 ± 11,183 ± 12,124 ± 4,178 ± 10,122 ± 8,,,,
"Cc1ncc([N+](=O)[O-])n1CCO [Compound 2, 2-Methyl-5-nitro-1-imidazole ethanol]",0,0,5 ± 1,,,42 ± 5,49 ± 6,500 ± 1400,1500 ± 1000,43 ± 6,104 ± 4,126 ± 9,106 ± 11,None,None,68 ± 13,"% increase over control relative to the maximal (5 mM) MMI-increased silencer complex which is set at 10 ([1]; 5 mM): 10 ± 2%; inhibition at 5000 µM ([2]; 5 mM, basal, 5H medium, read-out: % inhibition of class I RNA expression (basal)): 63 ± 14%; Y box protein (TSEP-1) RNA level, compound +γIFN ([5]; 5 mM compound + γIFN): 163 ± 15%; Y box protein (TSEP-1) RNA level, compound ALONE ([5]; 5 mM compound alone): 112 ± 4%"
"Cn1ccn(C)c1=S [Compound 8, N-Methylmethimazole]",0,3 ± 2,9 ± 1,,,,,356 ± 70,439 ± 93,77 ± 6,119 ± 13,148 ± 12,115 ± 5,9 ± 7%,14 ± 12%,,"% inhibition of class I RNA expression (γ-interferon-treated) ([2]; 1 mM, 100 U/ml γ-interferon, 6H medium (TSH)): 49 ± 13%; % inhibition of class I RNA expression (basal) ([2]; 1 mM, basal, 5H medium): 60 ± 6%; % inhibition of class I RNA expression (γ-interferon-treated) ([2]; 5 mM, 100 U/ml γ-interferon, 6H medium (TSH)): 73 ± 12%"
"CSc1nccn1C [Compound 7, S-Methylmethimazole]",0,2 ± 1,6 ± 0.5,14 ± 11,10 ± 8,40 ± 15,46 ± 9,424 ± 31,405 ± 15,83 ± 10,111 ± 16,133 ± 15,108 ± 4,,,69 ± 6,
